In article PMC11173533, “Baicalin and Baicalein Enhance Cytotoxicity, Proapoptotic Activity, and Genotoxicity of Doxorubicin and Docetaxel in MCF-7 Breast Cancer Cells” (Molecules, 2024):
Where “and” joins values, the source holds several entries; their conditions need not be identical. Identical values can stand only once.

Experiments:
[1] = system: HUVEC-ST cells; assay: MTT cell viability assay on HUVEC-ST cells; assay type: cell-based, human; conditions: for Inhibitory concentration IC10 (reduces cell viability by 10%) / IC50: HUVEC-ST cell line, 24 h incubation, MTT; for Concentrations that significantly decreased cell viability: HUVEC-ST, 24 h incubation with flavonoid, p < 0.05 vs control; for IC50: Homo sapiens, read-out: Inhibitory concentration IC50 (reduces cell viability by 50%)
Experimental: (§1) Unless otherwise indicated, in experiments, cells were seeded at an appropriate density for the specific assay into 96-well plates or Petri dishes. They were then incubated in standard culture conditions, which included a temperature of 37 °C, 100% relative humidity, and a 5% CO2 incubator. […] After treatment, the cells were washed with PBS and, depending on the experiment, immediately used for measurement or cultured in a fresh medium for 24 or 48 h. Control cells were treated with a corresponding volume of PBS. Additional controls for solvents were also performed.
The principle of the method is a measurement of the absorbance of formazan, a product of the reduction of the water-soluble tetrazolium salt (MTT) by NADPH-dependent cellular oxidoreductases (mainly succinate dehydrogenase) in living cells. Formazan is insoluble in water and precipitates as purple crystals. The amount of formazan is proportional to the number of living and metabolically active cells.
After treatment, the cells were washed with PBS and cultured in a fresh medium for 48 h. Subsequently, the medium was aspirated, and an aliquot of 50 µL of 0.05 mg/mL MTT solution was added to each microplate well for 3 h. The formazan crystals were dissolved in dimethyl sulfoxide (DMSO), and the absorbance was measured at a wavelength of λ = 580 nm. The percentage of viable cells was calculated by comparing the absorbance value of the test samples to the absorbance value of the control, taking the absorbance of the control as 100%.

[2] = system: MCF-7 cells; assay: Flavonoid-drug combination index (MTT, CompuSyn) in MCF-7 cells; assay type: cell-based, human
Experimental: (§2) The experiment with a non-constant combination of BLIN and BLEIN with DOX or DTX was carried out to determine the synergistic, additive, or antagonistic effect between investigated flavonoids and anticancer drugs. […] Subsequently, cell viability was determined by MTT assay. […] The results were presented as a combination index (CI).

[3] = system: HUVEC-ST cells; assay: Flavonoid-drug combination index (MTT, CompuSyn) in HUVEC-ST cells; assay type: cell-based, human
Experimental: as §2

[4] = system: MCF-7 cells; assay: Mitochondrial membrane potential (JC-1) in MCF-7 cells; assay type: cell-based, human
Experimental: as §1
The mitochondrial membrane potential was measured with the membrane-permeant JC-1 fluorescent probe. […] Thus, the measurement of the ratio of JC-1 dimer to monomer fluorescence can be used for estimating changes in mitochondrial membrane potential (ΔΨm).
The cells were then incubated in complete darkness for 30 min at 37 °C. After incubation, the cells were washed to remove the dye and suspended in fresh HBSS solution. Finally, the fluorescence intensity was measured using a Cary Eclipse spectrofluorometer (Varian, Inc.) at λex/em = 475 nm/530 nm for monomers and at λex/em = 535 nm/590 nm for dimers. Subsequently, the ratio of the fluorescence intensities at 530 nm/590 nm was calculated. The mitochondrial potential in both cell lines was measured immediately after incubation with investigated compounds. The results are expressed as a percentage of the control, considered 100%.

[5] = system: MCF-7 cells; assay: Alkaline comet assay in MCF-7 cells; assay type: cell-based, human
Experimental: as §1
The comet assay, also known as the single-cell gel electrophoresis assay, is a highly sensitive and versatile method for measuring single- and double-stranded DNA breaks. The assay uses an electric field to move negatively charged DNA fragments through an agarose gel. The amount of migration reflects the level of DNA damage in the cells.
The analysis was performed under alkaline conditions, according to the method of Singh et al., on cells immediately after the treatment and 24 or 48 h postincubation. […] One hundred randomly chosen cells were analyzed on each slide using a fluorescence microscope Zeiss Axio Scope A1 (Carl Zeiss, Oberkochen, Germany) with a video camera connected to the image-analysis system Lucia-Comet v. […]

[6] = system: cleaved PARP in HUVEC-ST cells; assay: Cleaved PARP In-Cell ELISA in HUVEC-ST cells; assay type: cell-based, human
Experimental: as §1
(§3) The expression of the protein was monitored using a target-specific primary antibody against an 85 kDa stable fragment of PARP proteolysis and a horseradish peroxidase-conjugated detection reagent.
(§4) The amount of cleaved PARP was measured in cells according to the manufacturer’s protocol immediately after the treatment and after 24 or 48 h postincubation. The absorbance was measured at a wavelength of λ = 450. Additionally, the whole cell staining was performed with Janus Green dye, and the absorbance was measured at a wavelength of λ = 615. […] Subsequently, the values were calculated as a fold increase, which means the ratio of an increased amount of cleaved PARP to the amount of cleaved PARP in control cells.

[7] = system: MCF-7 cell; design: method as in Liu et al. [48]; conditions: ref Liu et al. [48]; read-out: IC50, MCF-7 cell growth inhibition; cited from earlier work
[8] = system: MRP1; design: method as in PMID 15670588; conditions: 25 µmol/L; ref [65]; cited from earlier work
[9] = system: MRP2; design: method as in PMID 15670588; conditions: 25 µmol/L; ref [65]; cited from earlier work
[10] = system: cleaved PARP in MCF-7 cells; assay: Cleaved PARP In-Cell ELISA in MCF-7 cells; assay type: cell-based, human; conditions: docetaxel + flavonoid IC50, most intense of all times and combinations
Experimental: as §1, §3, §4

[11] = system: MCF-7 cell; design: method as in Wang et al. [49]; conditions: 5–100 µmol/L for 72 h; ref Wang et al. [49]; cited from earlier work
[12] = flavonoid IC10 22 h preincubation + DOX IC50 2 h
[13] = flavonoid IC10 22 h preincubation + DTX IC50 2 h
[14] = flavonoid IC50 22 h preincubation + DOX IC50 2 h
[15] = flavonoid IC50 22 h preincubation + DTX IC50 2 h
[16] = doxorubicin IC50 after 22 h preincubation with flavonoid IC50
[17] = flavonoid IC50 alone 24 h, control = 100%

Row | Compound | Inhibitory concentration IC10 (reduces cell viability by 10%) [1] [µmol/L] | Concentrations that significantly decreased cell viability [1] [µmol/L] | IC50 [1] [µM] | Combination index (CI) [2, 12] | Combination index (CI) [2, 13] | Combination index (CI) [2, 14] | Combination index (CI) [2, 15] | Combination index (CI) [3, 12] | Combination index (CI) [3, 13] | Combination index (CI) [3, 14] | Combination index (CI) [3, 15] | Mitochondrial membrane potential ΔΨm, % of control [4, 16] [%] | Mitochondrial membrane potential ΔΨm, % of control [4, 17] [%] | other results
1 | O=c1cc(-c2ccccc2)oc2cc(O)c(O)c(O)c12 [baicalein, 5,6,7-Trihydroxyflavone] | 75 ± 1.8 | ≥ 56 | 115 ± 2.6 | 1.073 | 1.08 | 0.3412 | 0.6276 | 0.8721 | 0.9611 | 0.6801 | 0.4428 | 20 | 30 | Mitochondrial membrane potential ΔΨm, % of control ([4]; docetaxel IC50 after 22 h preincubation with flavonoid IC50): 18%; DNA in the comet tail ([5]; docetaxel IC50 + flavonoid IC50, 24 h after incubation): 16%; DNA in the comet tail ([5]; docetaxel IC50 + flavonoid IC50, immediately after incubation): 19%; Amount of cleaved PARP relative to control cells ([6]; doxorubicin + flavonoid IC50, 48 h after incubation): twice higher than in control cells; Amount of cleaved PARP relative to control cells ([6]; flavonoid IC50 alone, 24 and 48 h after incubation): nearly two times higher than in control cells; IC50 [7]: 85.1 ± 1.26 µM; Inhibition of MRP1 protein activity [8]: inhibit the activity of MRP2 and MRP1 proteins; Inhibition of MRP2 protein activity [9]: inhibit the activity of MRP2 and MRP1 proteins
2 | O=C(O)[C@H]1O[C@@H](Oc2cc3oc(-c4ccccc4)cc(=O)c3c(O)c2O)[C@H](O)[C@@H](O)[C@@H]1O [baicalin, baicalein 7-O-β-D-glucuronide] | 101 ± 10.7 | ≥ 112 | 167 ± 6.7 | 1.158 | 0.9652 | 0.6435 | 0.5421 | 2.915 | 0.9948 | 1.794 | 3.1 and 3.137 | 31 | 30 | PARP cleavage, fold increase to control [10]: 2.5 fold; Inhibitory effect on MCF-7 cell proliferation [11]: did not observe any inhibitory effect
